In the supplement of paper PMC8837787 one finds IC50 growth inhibition data, which are given here for 57 compounds.

For the experiment, the system named is Saccharomyces cerevisiae ABC16-Green Monster. Particulars: 18 h; 30 °C; YPD. As for the experimental part:
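Growth inhibition of the drug-sensitive S. cerevisiae ABC16-Green Monster strain (16 ABC transporters deleted) in YPD at 30 °C for 18 h. […] dilution series […] in biological replicates; IC50 from OD600 (18 h minus 0 h) fitted by variable-slope nonlinear regression in GraphPad Prism. Library compounds were first screened at 150 µM, and only those with at least 70% inhibition went to dose-response; the rest are marked inactive.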

Bounds are passed on as bounds.

`Cc1cc(Nc2nc(N[C@@H](C)c3ncc(F)cn3)ncc2Cl)n[nH]1` [AZD-1480]: the IC50 growth inhibition came to 58.6 µM. To `CC(C)Oc1cc(Nc2nc(N[C@@H](C)c3ccc(F)cc3)c(C#N)cc2F)[nH]n1` [AZD-6918] belongs greater than 75 µM. In the case of `CC(C)(C)c1ccc2c(c1)CN(Cc1ccc(Cl)cc1)CO2`, the IC50 growth inhibition turned out to be 14.3 µM. On to `O=C(Nc1ccc2oc(-c3cccc4ccccc34)nc2c1)c1ccc([N+](=O)[O-])o1` [GNF-PF-2740], for which the IC50 growth inhibition stood at 0.941 µM. Take `COc1ccc(C2CC(c3cccs3)=NN2C(=O)c2ccco2)cc1OC` (configuration not stated): the IC50 growth inhibition worked out at 83.6 µM.

`O=C(Nc1ccc(Cl)c(Cl)c1)Nc1ccc(Cl)c(Cl)c1` registered an IC50 growth inhibition of 0.32 µM.

`O=C1C2=C(Nc3ccccc3SC2c2ccc(OCc3ccccc3)cc2)c2ccccc21` (configuration not stated) [GNF-PF-5338]: the IC50 growth inhibition is greater than 150 µM. `CC1C=CC=CCCC=CC=CC=CC=CC(OC2OC(C)C(O)C(N)C2O)CC2OC(O)(CC(O)C(O)CCC(O)CC(O)CC(O)CC(=O)OC(C)C(C)C1O)CC(O)C2C(=O)O` (configuration not stated) [Nystatin] showed an IC50 growth inhibition greater than 75 µM. To `O=C(Nc1nc(-c2ccccn2)cs1)C1CC1c1ccccc1F` (configuration not stated) belongs 6.32 µM; to `Cc1cc(C2CCCCC2)n(O)c(=O)c1` [Ciclopirox], 33.4 µM. `CC1CC(C)C(=O)C(C(O)CC2CC(=O)NC(=O)C2)C1` (configuration not stated) [Cycloheximide]: the IC50 growth inhibition stood at 0.0378 µM.

`COC1C=COC2(C)Oc3c(C)c(O)c4c(c3C2=O)C(=O)C(=CNN2CCN(C)CC2)C(=C4O)NC(=O)C(C)=CC=CC(C)C(O)C(C)C(O)C(C)C(OC(C)=O)C1C` (configuration not stated) [Rifampicin] returned an IC50 growth inhibition greater than 75 µM.

Consider `CC(C)c1ccc(C2C3CCc4ccccc4C3=NN2CCO)cc1` (configuration not stated), for which the IC50 growth inhibition is 49.9 µM.

In the case of `Cc1nc(NC(=O)c2csc(NC3CCCC3)n2)sc1C`, the IC50 growth inhibition was determined as 12.4 µM. Regarding `O=C(Nc1cc(Oc2cc(F)c(NC(=O)C3(C(=O)Nc4ccc(F)cc4)CC3)cc2F)ccn1)C1CC1` [Altiratinib], the IC50 growth inhibition is greater than 75 µM. Compound `O=C1C2=C(Nc3ccccc3SC2c2ccccc2F)c2ccccc21` (configuration not stated) displayed an IC50 growth inhibition of 9.02 µM. Compound `CC(C)(C)n1nc(Cc2cccc3ccccc23)c2c(N)ncnc21` registered an IC50 growth inhibition of 27.6 µM. To `CC(=O)OC1c2nc(cs2)C(=O)OC(CCCC(C)(Cl)Cl)C(C)C(=O)OC(C(C)(C)O)c2nc(cs2)C(=O)OC1(C)C` (configuration not stated) [Hectochlorin] belongs 0.25 µM; to `O=C(O)c1ccc2c(c1)nc(Nc1cccc(Cl)c1)c1ccncc12` [Silmitasertib], greater than 75 µM. Consider `Cc1ccc(N/N=C/c2c3ccccc3cc3ccccc23)cc1Cl`, for which the IC50 growth inhibition worked out at 14 µM. As for `COc1ccc(C2Sc3ccccc3N=C3C2=C(O)c2ccccc23)cc1` (configuration not stated) [GNF-Pf-5129], the figure is 3.97 µM. As for `CC(C)c1cc(NCCCN2CCOCC2)n2ncc(-c3ccccc3)c2n1`, the IC50 growth inhibition is 25.1 µM.

Compound `Cc1ccc(-n2nc(C(C)(C)C)cc2NC(=O)NCc2cc(F)ccc2Oc2ccc3c(cnn3CCO)c2)cc1` [Pexmetinib] came in with an IC50 growth inhibition greater than 75 µM. As to `OC(CNC1CCCCC1)Cn1c2ccc(I)cc2c2cc(I)ccc21` (configuration not stated), the IC50 growth inhibition was found to be 3.98 µM. As to `O=C(Nc1nnc(-c2ccc(Cl)cc2)o1)c1cccc(C(F)(F)F)c1`, the IC50 growth inhibition turned out to be 71.2 µM. In the case of `Cn1ncc2c(NCc3ccc(-c4ccc(Cl)cc4)o3)ncnc21`, the IC50 growth inhibition stood at 61.9 µM. To `C=CC1(C)CC(=O)C2(O)C(C)(O1)C(OC(C)=O)C(O)C1C(C)(C)CCC(O)C12C` (configuration not stated) [Forskolin] belongs greater than 75 µM; to `O=C(Nc1ccc(C(F)(F)F)c(C(F)(F)F)c1)c1cc(Cl)ccc1O`, 5.64 µM. To `FC(F)c1nc2ccccc2n1-c1nc(N2CCOCC2)nc(N2CCOCC2)n1` [ZSTK-474] belongs 52 µM; to `CC(C)c1ccc(/C=C2\CCc3c2nc2ccccc2c3C(=O)O)cc1`, 19.9 µM. For `COc1cccc(-n2nnnc2S(C)(=O)=O)c1`, the IC50 growth inhibition worked out at 53.8 µM. Compound `CC(CN1c2ccccc2Sc2ccccc21)N(C)C` (configuration not stated) [Promethazine] had an IC50 growth inhibition of 98.9 µM. Compound `CCN(CC)CCCC(C)Nc1ccnc2cc(Cl)ccc12` (configuration not stated) [Chloroquine] displayed an IC50 growth inhibition greater than 75 µM.

With `CCCCN(CCCC)CC(O)c1cc(Cl)cc2c1-c1ccc(Cl)cc1C2=Cc1ccc(Cl)cc1` (configuration not stated) [Lumefantrine], the IC50 growth inhibition is greater than 75 µM.

In turn, `CCC(C)(C)c1ccc(OCCOCC[n+]2ccccc2)c(C(C)(C)CC)c1.[Cl-]` [GNF-Pf-1618] came in with an IC50 growth inhibition of 2.19 µM. As for `Oc1ccc(C(=C(Cl)Cl)c2ccc(O)cc2)cc1`, the figure is 6.96 µM; as for `Cc1cc(C(C)(C)CC(C)(C)C)ccc1OCCOCC[N+](C)(C)Cc1ccccc1` [KAAA726], 3.74 µM; as for `COC1C(OC(N)=O)C(O)C(Oc2ccc3c(O)c(NC(=O)c4ccc(O)c(CC=C(C)C)c4)c(=O)oc3c2C)OC1(C)C` (configuration not stated) [Novobiocin], greater than 75 µM.

In turn, `CC(C)(C)C1CCc2[nH]c3ccccc3c(=O)c2C1` (configuration not stated) [GNF-Pf-3815] returned an IC50 growth inhibition of 60.3 µM. For the compound `COc1ccccc1N=C1C(=O)c2ccccc2C(O)=C1N1CCCCC1`, the IC50 growth inhibition is 7.84 µM.

Compound `CC1=NN(c2nc3ccccc3[nH]2)C(=O)C1Cc1ccccc1` (configuration not stated) [CBR110] showed an IC50 growth inhibition of 3.48 µM.

The compound `O=C(O)[C@]1(Cc2cccc(Nc3nccs3)n2)CC[C@@H](Oc2cccc(Cl)c2F)CC1` [MK-5108] gave an IC50 growth inhibition greater than 75 µM. `OC1=C2C(=Nc3ccccc3SC2c2ccco2)c2ccccc21` (configuration not stated) [GNF-Pf-4283]: the IC50 growth inhibition was found to be 11 µM.

Take `Cc1nc(-c2ccccn2)nc(N(C)CCc2ccccc2)c1Cl`: the IC50 growth inhibition amounted to 43.3 µM. Consider `Cc1cc(=O)nc(N/N=C/c2cc(C)n(CC(F)(F)F)c2C)[nH]1`, for which the IC50 growth inhibition worked out at 81.9 µM. `Cc1cc(NCCc2ccccc2)nc(NC(=N)Nc2ccc(Cl)cc2)n1` displayed an IC50 growth inhibition of 53.8 µM. Compound `CCC(NC(=O)c1ccccc1NC(=O)c1ccc(C)cc1)C(=O)OC` (configuration not stated) displayed an IC50 growth inhibition of 31.7 µM. Turning to `Nc1ccc(C(=O)Nc2ccc(-c3nc4ccccc4o3)cc2)cc1`, the IC50 growth inhibition turned out to be 19 µM. Regarding `COc1ccc2nc3cc(Cl)ccc3c(N(C)CCc3ccc(OC)c(OC)c3)c2c1`, the IC50 growth inhibition turned out to be 27.2 µM. As for `O=C(C1CCCCC1)N1CC(=O)N2CCc3ccccc3C2C1` (configuration not stated) [Praziquantal], the figure is greater than 75 µM; as for `CCc1c(C(=O)Nc2nc(C)cs2)cnn1-c1cccc(Cl)c1`, 30.5 µM; as for `CNCCC(Oc1ccc(C(F)(F)F)cc1)c1ccccc1` (configuration not stated), 48.3 µM.

For `CCS(=O)(=O)N1Cc2ccccc2CC1C(=O)Nc1nc2ccc(F)cc2s1` (configuration not stated), the IC50 growth inhibition stood at 74 µM. To `CCS(=O)(=O)c1ncc(Cl)c(C(=O)Nc2ccc(C(=O)OC)cc2)n1` belongs 17.4 µM. As for `Cc1cc(NC(C)C)n2ncc(-c3ccc(F)cc3)c2n1`, the IC50 growth inhibition was determined as 90.7 µM.

The compound `c1ccc(-c2nc(NC3CCCCC3)cc(C3CC3)n2)nc1` yielded an IC50 growth inhibition of 44.5 µM.

`COc1cc(C=Cc2ccc(O)cc2)cc(OC)c1` [Pterostilbene] registered an IC50 growth inhibition of 29.4 µM.
